# What was measured:
# rat fat cells [1] = assay: Lipogenesis in isolated rat fat cells (insulin-like activity); format: cell-based, rat (Wistar); conditions: 1.5 h; for EC50: read-out: Lipogenesis EC50; for Emax: read-out: Lipogenesis % Insmax
# Protocol: (§1) This example provides exemplary methods for determining insulin-like activity. The biological activity of the compounds of the formula I according to the invention is determined with the aid of isolated fat cells from the rat.
# (§2) The preparation of fat cells from the rat was carried out as follows: White fatty tissue of the epididymis (Wistar rat, 160-180 g, no food restriction) is digested with collagenase and the resulting isolated fat cells are separated off by means of filtration of undigested tissue and washed by flotation several times using Krebs-Ringer-Henseleit buffer (KRH buffer).
# This test determines the insulin-stimulable conversion of glucose into toluene-soluble products (triglycerides, phospholipids, fatty acids), which promotes glucose transport and triglyceride (glycerol-3-P synthesis, esterification)/phospholipid/fatty acid synthesis including the insulin signal transmission cascade. At a glucose concentration of 2.5 mM in the test, the esterification (and not the glycerol-3-P synthesis including glucose transport) is rate-determining for the stimulation of lipogenesis.
# 200 μl (3×10^5 cells/ml) of rat fat cells in KRH buffer are incubated at 37° C. for 90 min with 100 μl of D-[3-^3 H] glucose (25 mM, 0.4 μCi) in the presence or absence of insulin (10 ng/ml) or compound of the formula I according to the invention (final volume 1 ml). By addition of a toluene-soluble scintillation cocktail (10 ml), the cells are disrupted and the lipids are separated off from water-soluble products and the incubation medium. After phase separation, the radioactivity incorporated in lipid products is determined directly without removal of the aqueous phase by scintillation measurement ([^3 H]lipid [dpm×10^-3 ]). A control value (incubation under identical conditions but without cells) is subtracted from this radioactivity. The lipogenesis rate is linear up to 120 min. The maximum stimulation factor--this is the ratio of the incubation result with insulin to the incubation results without insulin--is set at 100%. The percentage data under "%Insmax " are parts of the maximum stimulation factor defined in this way. The term EC50 indicates the concentration of the compound of the formula I at which 50% of the maximum stimulation to be achieved by the respective compound of the formula I is to be observed.
# rat fat cells [2] = assay: Glucose transport in isolated rat fat cells (insulin-like activity); format: cell-based, rat (Wistar); conditions: for Emax: 0.25 h, read-out: Glucose transport % Insmax; for EC50: read-out: Glucose transport EC50
# Protocol: as §1, §2
# […] After addition of 15 μl of 2-[^3 H]-deoxyglucose (0.3 mM, 0.2 μCi), the incubation is continued at room temperature. After specified times (0-20 min), 100 μl of the test batch are removed and transferred to a reaction vessel (contents 400 μl), in which 250 μl of dinonyl phthalate have been initially introduced. After centrifugation (15,000×g, 1 min), the cells are separated off from the oily layer of the incubation medium underneath the oily layer by cutting the tube at the level of the oily layer and transferring to a scintillation vessel. After addition of 5 ml of water-soluble scintillation fluid, the radioactivity is determined. This total cell-associated radioactivity is corrected for [^3 H]-deoxyglucose which has passively diffused into the cells and is included in the cell interstices by subtraction of a control value (incubation in the presence of the glucose transport inhibitor cytochalasin B). The initial (stimulated) glucose transport rate is linear up to 15 min. The maximum stimulation factor--this is the ratio of the incubation result with insulin to the incubation result without insulin--is set at 100%.
# The terms "%Insmax " and "EC50 " are as defined under A) lipogenesis.
# [3] = concentration at 50% of the maximum stimulation achieved by the respective compound, rat fat cells, 90 min, 37° C.
# [4] = part of maximum stimulation factor of insulin (set at 100%), rat fat cells, 90 min, 37° C., D-[3-3H]glucose
# [5] = part of maximum stimulation factor of insulin (set at 100%), rat fat cells, 15 min, 37° C., 2-[3H]-deoxyglucose
# [6] = concentration at 50% of the maximum stimulation achieved by the respective compound, rat fat cells, 2-[3H]-deoxyglucose
Compound,EC50 (rat fat cells [1]; [3]),EC50 (rat fat cells [2]; [6]),Emax (rat fat cells [1]; [4]),Emax (rat fat cells [2]; [5]),Emax (rat fat cells [1]; Rattus norvegicus),EC50 (rat fat cells [1]; Rattus norvegicus),Emax (rat fat cells [2]; Rattus norvegicus),EC50 (rat fat cells [2]; Rattus norvegicus)
"N[C@H]1[C@H](O[C@@H]2[C@@H](O)[C@H](O)[C@@H](O)[C@H]3OP(O)(=S)O[C@H]32)O[C@H](CO)[C@@H](O[C@H]2O[C@H](CO[C@H]3O[C@H](CO)[C@@H](O)[C@H](O)[C@@H]3O[C@H]3O[C@H](CO[PH](=O)O)[C@@H](O)[C@H](O)[C@@H]3O[C@H]3O[C@H](CO)[C@@H](O)[C@H](O)[C@@H]3O)[C@@H](O)[C@H](O)[C@@H]2O)[C@@H]1O (stereo partly drawn) [C, HO-PO(H)O-6Manα1(Manα1-2)-2Manα1-6Manα1-4GluNβ1-6(D)inositol-1,2-(cyclic)-thiophosphate]",,,,,64%,7 µM,29%,10 µM
"N[C@H]1[C@H](O[C@H]2[C@H](O)[C@@H](O)[C@H](OP(=O)(O)O)[C@H](O)[C@@H]2O)O[C@H](CO)[C@@H](O)[C@@H]1O[C@H]1O[C@H](CO[C@H]2O[C@H](CO)[C@@H](O)[C@H](O)[C@@H]2O[C@H]2O[C@H](CO[PH](=O)O)[C@@H](O)[C@H](O)[C@@H]2O[C@H]2O[C@H](CO)[C@@H](O)[C@H](O)[C@@H]2O)[C@@H](O)[C@H](O)[C@@H]1O [D, HO-PO(H)O-6Manα1(Manα1-2)-2Manα1-6Manα1-3GluNβ1-6(L)inositol-3-phosphate]",20 µM,18 µM,33%,18%,,,,
"NCCOP(=O)(O)OC[C@H]1O[C@H](OC[C@H]2O[C@H](O[C@H]3[C@H](O)[C@@H](N)[C@H](O[C@@H]4[C@@H](O)[C@H](O)[C@@H](O)[C@H]5OP(=O)(O)O[C@H]54)O[C@@H]3CO)[C@@H](OP(=O)(O)OCCN)[C@@H](O)[C@@H]2O)[C@@H](O[C@H]2O[C@H](CO[PH](=O)O)[C@@H](O)[C@H](O)[C@@H]2O[C@H]2O[C@H](CO)[C@@H](O)[C@H](O)[C@@H]2O)[C@@H](O)[C@@H]1O [E, HO-PO(H)O-6Manα1(Manα1-2)-2Manα1(6-EtNP)-6Manα1(2-EtNP)-4GluNβ1-6(D)inositol-1,2-(cyclic)-phosphate]",60 µM,30 µM,48%,34%,,,,
"N[C@H]1[C@@H](O[C@H]2[C@H](O)[C@@H](O)[C@H](O)[C@H](O)[C@@H]2O)O[C@H](CO)[C@@H](O[C@H]2O[C@H](CO[PH](=O)O)[C@@H](O)[C@H](O)[C@@H]2O)[C@@H]1O [H, HO-PO(H)O-6Manα1-4GluNα1-6(L)inositol]",25 µM,10 µM,15%,2%,,,,
"O=[PH](O)OC[C@H]1O[C@H](OC[C@H]2O[C@H](OC[C@H]3O[C@H](OC[C@H]4O[C@H](OC[C@H]5O[C@H](O[C@H]6[C@H](O)[C@@H](O)[C@H](OP(=O)(O)O)[C@H](O)[C@@H]6O)[C@@H](O)[C@@H](O)[C@@H]5O)[C@@H](O)[C@@H](O)[C@@H]4O)[C@@H](O)[C@@H](O)[C@@H]3O)[C@@H](O)[C@@H](O)[C@@H]2O)[C@@H](O)[C@@H](O)[C@@H]1O [O, HO-PO(H)O-6-Manα1-6Manα1-6Manα-1-6Manα1-6Manα1-6(L)inositol-3-phosphate]",20 µM,50 µM,10%,5%,,,,
"N[C@H]1[C@H](O[C@H]2[C@H](O)[C@@H](O)[C@H](OP(=O)(O)O)[C@H](O)[C@@H]2O)O[C@H](CO)[C@@H](O)[C@@H]1O[C@H]1O[C@H](CO[C@H]2O[C@H](CO[PH](=O)O)[C@@H](O)[C@H](O)[C@@H]2O[C@H]2O[C@H](CO[PH](=O)O)[C@@H](O)[C@H](O)[C@@H]2O)[C@@H](O)[C@H](O)[C@@H]1O [Q, HO-PO(H)O-6Manα1-2Manα1(6-PO(H)OH)-6-Manα1-3GluNβ1-6(L)inositol-3-phosphate]",40 µM,30 µM,44%,18%,,,,
"NC(=O)OC[C@H]1O[C@H](O[C@@H]2[C@@H](OC[C@H]3O[C@H](O[C@@H]4[C@@H](N)[C@H](O[C@H]5[C@H](O)[C@@H](O)[C@H](OP(=O)(O)O)[C@H](O)[C@@H]5O)O[C@H](CO)[C@H]4O)[C@@H](O)[C@@H](O)[C@@H]3O)O[C@H](COC(N)=O)[C@@H](O)[C@@H]2O)[C@@H](O[C@H]2O[C@H](CO)[C@@H](O)[C@H](O)[C@@H]2O)[C@@H](O)[C@@H]1O [R, H2 N-CO-O-6Manα1(Manα1-2)-2Manα1(6-CO-NH2)-6Manα1-3GluNβ1-6(L)inositol-3-phosphate]",15 µM,10 µM,48%,19%,,,,

# The next lines start with results.
EC50 (rat fat cells [1]; [3]),EC50 (rat fat cells [2]; [6]),Compound,Emax (rat fat cells [1]; [4]),Emax (rat fat cells [2]; [5]),Emax (rat fat cells [1]; Rattus norvegicus),EC50 (rat fat cells [1]; Rattus norvegicus),Emax (rat fat cells [2]; Rattus norvegicus),EC50 (rat fat cells [2]; Rattus norvegicus)
7 µM,8 µM,"N[C@H]1[C@H](O[C@H]2[C@H](O)[C@@H](O)[C@H](O)[C@@H]3OP(=O)(O)O[C@H]23)O[C@H](CO)[C@@H](O[C@H]2O[C@H](CO[C@H]3O[C@H](CO)[C@@H](O)[C@H](O)[C@@H]3O[C@H]3O[C@H](CO[PH](=O)O)[C@@H](O)[C@H](O)[C@@H]3O[C@H]3O[C@H](CO)[C@@H](O)[C@H](O)[C@@H]3O)[C@@H](O)[C@H](O)[C@@H]2O)[C@@H]1O [A, HO-PO(H)O-6Manα1(Manα1-2)-2Manα1-6Manα1-4GluNβ1-6(L)inositol-1,2-(cyclic)-phosphate]",59%,28%,,,,
8.2 µM,8.1 µM,"N[C@H]1[C@H](O[C@@H]2[C@@H](O)[C@H](O)[C@@H](O)[C@H]3OP(=O)(O)O[C@H]32)O[C@H](CO)[C@@H](O[C@H]2O[C@H](CO[C@H]3O[C@H](CO)[C@@H](O)[C@H](O)[C@@H]3O[C@H]3O[C@H](CO[PH](=O)O)[C@@H](O)[C@H](O)[C@@H]3O[C@H]3O[C@H](CO)[C@@H](O)[C@H](O)[C@@H]3O)[C@@H](O)[C@H](O)[C@@H]2O)[C@@H]1O [B, HO-PO(H)O-6Manα1(Manα1-2)-2Manα1-6Manα1-4GluNβ1-6(D)inositol-1,2-(cyclic)-phosphate]",77%,41%,,,,
15 µM,15 µM,"N[C@H]1[C@@H](O[C@H]2[C@H](O)[C@@H](O)[C@H](O)[C@@H]3OP(=O)(O)O[C@H]23)O[C@H](CO)[C@@H](O[C@H]2O[C@H](CO[PH](=O)O)[C@@H](O)[C@H](O)[C@@H]2O)[C@@H]1O [G, HO-PO(H)O-6Manα1-4GluNα1-6(L)inositol-1,2-(cyclic)-phosphate]",25%,9%,,,,
7 µM,6 µM,"N[C@H]1[C@H](O[C@@H]2[C@@H](O)[C@H](O)[C@@H](O)[C@H]3OP(=O)(O)O[C@H]32)O[C@H](CO)[C@@H](O[C@H]2O[C@H](CO[C@H]3O[C@H](CO[PH](=O)O)[C@@H](O)[C@H](O)[C@@H]3O[C@H]3O[C@H](CO[PH](=O)O)[C@@H](O)[C@H](O)[C@@H]3O[C@H]3O[C@H](CO)[C@@H](O)[C@H](O)[C@@H]3O)[C@@H](O)[C@H](O)[C@@H]2O)[C@@H]1O [M, HO-PO(H)O-6Manα1(Manα1-2)-2Manα1(6-PO(H)OH)-6Manα1-4GluNβ1-6(D)-inositol-1,2-(cyclic)-phosphate]",90%,39%,,,,
3 µM,5 µM,"N[C@H]1[C@H](O[C@@H]2[C@@H](O)[C@H](O)[C@@H](O)[C@H]3OP(=O)(O)O[C@H]32)O[C@H](CO)[C@@H](O[C@H]2O[C@H](CO[C@H]3O[C@H](COS(=O)(=O)O)[C@@H](O)[C@H](O)[C@@H]3O[C@H]3O[C@H](COS(=O)(=O)O)[C@@H](O)[C@H](O)[C@@H]3O[C@H]3O[C@H](CO)[C@@H](O)[C@H](O)[C@@H]3O)[C@@H](O)[C@H](O)[C@@H]2O)[C@@H]1O [N, HO-SO2 -O-6Manα1(Manα1-2)-2Manα1(6-HSO3)-6Manα1-4-GluNβ1-6(D)-inositol-1,2-(cyclic)-phosphate]",96%,52%,,,,

# — US6004938A, “Inositolglycans having insulin-like action” (Hoescht Aktiengesellschaft, priority 1996, dated 1999)
